“And” between values parts separate entries of the source, which are not always exact repeats. Identical values can stand only once. Like-named read-outs stand apart in the source and are kept apart here.
Assays:
[1] = amide bond, 13-membered ring, DMF
CFTR [2] = biological target: T1, CFTR (Homo sapiens, UniProt P13569); assay: Membrane Potential Dye, Enteroid Assay A; assay type: cell-based; conditions: for EC50: read-out: Ent. A EC50
Procedure: Base medium (ADF+++) consisted of Advanced DMEM/Ham's F12, 2 mM Glutamax, 10 mM HEPES, 1 µg/mL penicillin/streptomycin.
Intestinal enteroid maintenance medium (IEMM) consisted of ADF+++, 1× B27 supplement, 1× N2 supplement, 1.25 mM N-acetyl cysteine, 10 mM Nicotinamide, 50 ng/mL hEGF, 10 nM Gastrin, 1 pg/mL hR-spondin-1, 100 ng/mL hNoggin, TGF-b type 1 inhibitor A-83-01, 100 μg/mL Primocin, […] P38 MAPK inhibitor SB202190.
Bath 1 Buffer consisted of 1 mM MgCl2, 160 mM NaCl, 4.5 mM KCl, 10 mM HEPES, 10 mM Glucose, 2 mM CaCl2).
Chloride Free Buffer consisted of 1 mM Magnesium Gluconate, 2 mM Calcium Gluconate, 4.5 mM Potassium Gluconate, 160 mM Sodium Gluconate, 10 mM HEPES, 10 mM Glucose.
Bath1 Dye Solution consisted of Bath 1 Buffer, 0.04% Pluronic F127, […] Methyl Oxonol, 30 μM CaCCinh-A01, 30 μM Chicago Sky Blue.
Chloride Free Dye Solution consisted of Chloride Free Buffer, 0.04% Pluronic F127, 20 μM Methyl Oxonol, 30 μM CaCCinh-A01, 30 μM Chicago Sky Blue.
Chloride Free Dye Stimulation Solution consisted of Chloride Free Dye Solution, 10 μM forskolin, 100 μM IBMX, and 300 nM Compound III.
Human intestinal epithelial enteroid cells were obtained from the Hubrecht Institute for Developmental Biology and Stem Cell Research, Utrecht, The Netherlands and expanded in T-Flasks as previously described (Dekkers J F, Wiegerinck C L, de Jonge H R, Bronsveld I, Janssens H M, de Winter-de Groot K M, Brandsma A M, de Jong N W M, Bijvelds M J C, Scholte B J, Nieuwenhuis E E S, van den Brink S, Clevers H, van der Ent C K, Middendorp S and M Beekman J M. A functional CFTR assay using primary cystic fibrosis intestinal organoids. Nat Med. 2013 July; 19(7):939-45.).
Cells were recovered in cell recovery solution, collected by centrifugation at 650 rpm for 5 min at 4° C., resuspended in TryPLE and incubated for 5 min at 37° C. Cells were then collected by centrifugation at 650 rpm for 5 min at 4° C. and resuspended in IEMM containing 10 μM ROCK inhibitor (RI). The cell suspension was passed through a 40 μm cell strainer and resuspended at 1×10^6 cells/mL in IEMM containing 10 μM RI. Cells were seeded at 5000 cells/well into multi-well plates and incubated for overnight at 37° C., 95% humidity and 5% CO2 prior to assay.
Enteroid cells were incubated with test compound in IEMM for 18-24 hours at 37° C., 95% humidity and 5% CO2. […] Briefly, cells were washed 5 times in Bath 1 Buffer. Bath 1 Dye Solution was added, and the cells were incubated for 25 min at room temperature. Following dye incubation, cells were washed 3 times in Chloride Free Dye Solution. Chloride transport was initiated by addition of Chloride Free Dye Stimulation Solution and the fluorescence signal was read for 15 min. […] Chloride transport was then expressed as a percentage of the chloride transport following treatment with 3 μM (S)—N-((6-aminopyridin-2-yl)sulfonyl)-6-(3-fluoro-5-isobutoxyphenyl)-2-(2,2,4-trimethylpyrrolidin-1-yl)nicotinamide, 3 μM (R)-1-(2,2-difluorobenzo[d][1,3]dioxol-5-yl)-N-(1-(2,3-dihydroxypropyl)-6-fluoro-2-(1-hydroxy-2-methylpropan-2-yl)-1H-indol-5-yl)cyclopropanecarboxamide and 300 nM acute N-[2,4-bis(1,1-dimethylethyl)-5-hydroxyphenyl]-1,4-dihydro-4-oxoquinoline-3-carboxamide triple combination control (% Activity).

CFTR [3] = biological target: T1, CFTR; assay: Membrane Potential Dye, Enteroid Assay B; assay type: cell-based; conditions: for EC50: read-out: Ent. B EC50
How it was run: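 Membrane-potential fluorescence read over 15 min after chloride-free stimulation (forskolin 10 μM, IBMX 100 μM, Compound III 300 nM), with CaCCinh-A01 and Chicago Sky Blue present. Enteroids had 18-24 h compound exposure at 37 °C; activity given as % of the triple-combination corrector/potentiator reference response.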

T1 sequence (P13569 with tags, fused parts or gaps DEL508-508): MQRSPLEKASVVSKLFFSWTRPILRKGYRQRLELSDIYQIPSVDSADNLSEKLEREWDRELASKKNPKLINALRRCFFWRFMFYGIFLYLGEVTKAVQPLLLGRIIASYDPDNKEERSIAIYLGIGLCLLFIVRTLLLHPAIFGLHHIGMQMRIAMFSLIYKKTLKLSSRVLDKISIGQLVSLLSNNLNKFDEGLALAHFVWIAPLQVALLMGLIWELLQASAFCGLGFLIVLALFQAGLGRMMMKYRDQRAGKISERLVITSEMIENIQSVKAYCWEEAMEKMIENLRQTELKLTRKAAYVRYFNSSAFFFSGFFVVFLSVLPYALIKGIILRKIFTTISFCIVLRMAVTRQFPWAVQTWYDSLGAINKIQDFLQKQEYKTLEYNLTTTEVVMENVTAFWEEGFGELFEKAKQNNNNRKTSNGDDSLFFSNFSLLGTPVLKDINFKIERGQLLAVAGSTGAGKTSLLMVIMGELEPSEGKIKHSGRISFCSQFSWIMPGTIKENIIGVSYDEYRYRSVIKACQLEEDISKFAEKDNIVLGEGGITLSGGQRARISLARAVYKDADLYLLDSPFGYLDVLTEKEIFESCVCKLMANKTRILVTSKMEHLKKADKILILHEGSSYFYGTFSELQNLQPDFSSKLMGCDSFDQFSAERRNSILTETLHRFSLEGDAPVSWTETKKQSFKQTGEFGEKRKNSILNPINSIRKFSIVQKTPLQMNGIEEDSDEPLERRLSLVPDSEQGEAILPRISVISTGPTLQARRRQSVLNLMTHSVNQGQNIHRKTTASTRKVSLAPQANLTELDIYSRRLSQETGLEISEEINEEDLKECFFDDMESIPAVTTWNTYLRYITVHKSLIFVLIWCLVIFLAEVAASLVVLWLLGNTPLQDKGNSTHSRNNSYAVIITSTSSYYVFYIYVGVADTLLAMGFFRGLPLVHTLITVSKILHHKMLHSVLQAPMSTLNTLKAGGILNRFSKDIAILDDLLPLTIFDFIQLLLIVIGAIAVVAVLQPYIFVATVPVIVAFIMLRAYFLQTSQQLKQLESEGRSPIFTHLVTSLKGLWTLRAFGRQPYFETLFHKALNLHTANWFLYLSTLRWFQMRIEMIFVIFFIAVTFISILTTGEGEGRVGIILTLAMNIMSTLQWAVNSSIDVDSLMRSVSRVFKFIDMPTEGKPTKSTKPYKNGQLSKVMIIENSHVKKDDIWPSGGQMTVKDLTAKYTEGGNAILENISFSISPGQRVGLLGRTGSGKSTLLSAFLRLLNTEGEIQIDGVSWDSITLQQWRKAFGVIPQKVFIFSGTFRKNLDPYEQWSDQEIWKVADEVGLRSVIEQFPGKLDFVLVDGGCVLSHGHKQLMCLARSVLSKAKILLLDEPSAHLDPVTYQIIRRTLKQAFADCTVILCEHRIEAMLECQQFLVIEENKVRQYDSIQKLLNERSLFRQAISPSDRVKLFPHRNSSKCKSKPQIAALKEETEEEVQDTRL

| Compound | Ent. A Max Activity (CFTR [2]) | EC50 (CFTR [2]) | Ent. B Max Activity (CFTR [3]) | EC50 (CFTR [3]) | other results |
| --- | --- | --- | --- | --- | --- |
| COc1c2nc(nc1-c1c(C)cccc1C)NS(=O)(=O)c1cccc(c1)C(=O)N(C1CC3(CCN(C(=O)OC(C)(C)C)CC3)C1)[C@H](CC(C)C)CO2 | – | – | – | – | ring closure, yield after HPLC ([1]; HATU/DIEA): 22% |
| Cc1cccc(C(C)C)c1-c1nc2nc(c1C)OC[C@@H](CC(C)(C)C)N(Cc1ncc(N3CCOCC3)cn1)C(=O)c1cccc(c1)S(=O)(=O)N2 | – | – | – | – | ring closure, yield after HPLC ([1]; from Cc1cccc(C(C)C)c1-c1nc(NS(=O)(=O)c2cccc(C(=O)O)c2)nc(OC[C@@H](CC(C)(C)C)NCc2ncc(N3CCOCC3)cn2)c1C, CDMT/NMM, 55.0 mM, 19.0 h): 18% and 11% |
| (5M,11R)-11-(2,2-dimethylpropyl)-7-methyl-6-[2-methyl-6-(3-methylbutyl)phenyl]-12-{[5-(propan-2-yloxy)pyrimidin-2-yl]methyl}-9-oxa-2λ^6-thia-3,5,12,19-tetraazatricyclo[12.3.1.14,8] nonadeca-1(17),4(19),5,7,14(18),15-hexaene-2,2,13-trione | – | – | – | – | ring closure, yield after HPLC ([1]; CDMT/NMM, 47.4 mM): 40% |
| (5P,11R)-6-(2-cyclopropyl-6-methyl-phenyl)-11-(2,2-dimethylpropyl)-7-methyl-12-[(5-morpholinopyrimidin-2-yl)methyl]-2,2-dioxo-9-oxa-2^6-thia-3,5,12,19-tetrazatricyclo[12.3.1.14,8]nonadeca-1(18),4(19),5,7,14,16-hexaen-13-one | – | – | – | – | ring closure, yield after HPLC ([1]; CDMT/NMM, 122.0 mM): 25% |
| Cc1cccc(CC(C)(C)C)c1-c1nc2nc(c1C)OC[C@@H](CC(C)(C)C)N(Cc1ncc(N3CCC(C)(C)C3)cn1)C(=O)c1cccc(c1)S(=O)(=O)N2 | – | – | – | – | ring closure, yield after HPLC ([1]; from Cc1cccc(CC(C)(C)C)c1-c1nc(NS(=O)(=O)c2cccc(C(=O)O)c2)nc(OC[C@@H](CC(C)(C)C)NCc2ncc(N3CCC(C)(C)C3)cn2)c1C, CDMT/NMM, 11.0 mM, 16.0 h, 2 steps): 11%; ring closure, yield after HPLC ([1]; from Cc1cccc(CC(C)(C)C)c1-c1nc(NS(=O)(=O)c2cccc(C(=O)O)c2)nc(OC[C@@H](CC(C)(C)C)NCc2ncc(N3CCC(C)(C)C3)cn2)c1C, CDMT/NMM, 12.0 mM, 16.0 h, 2 steps): 7% |
| Cc1cccc(C)c1-c1nc2nc(c1C)OC[C@@H](CC(C)(C)C)N(C1CC3(C1)CC(C(C)(C)O)C3)C(=O)c1cccc(c1)S(=O)(=O)N2 (stereo partly shown) | – | – | – | – | ring closure, yield after HPLC ([1]; from Cc1cccc(C)c1-c1nc(NS(=O)(=O)c2cccc(C(=O)O)c2)nc(OC[C@@H](CC(C)(C)C)NC2CC3(C2)CC(C(C)(C)O)C3)c1C, HATU/DIEA, 28.7 mM, 16.0 h): 6% |
| Cc1cccc(C)c1-c1nc2nc(c1C)OC[C@@H](CC(C)(C)C)N(C1CC3(CC(NC(=O)OC(C)(C)C)C3)C1)C(=O)c1cccc(c1)S(=O)(=O)N2 (stereo partly shown) | – | – | – | – | ring closure, yield after HPLC ([1]; from Cc1cccc(C)c1-c1nc(NS(=O)(=O)c2cccc(C(=O)O)c2)nc(OC[C@@H](CC(C)(C)C)NC2CC3(CC(NC(=O)OC(C)(C)C)C3)C2)c1C, HATU/DIEA, 14.3 mM, 72.0 h): 62% |
| Cc1cccc(CC2CCOCC2)c1-c1nc2nc(c1C)OC[C@@H](CC(C)(C)C)N(Cc1ncc(N3CCOCC3)cn1)C(=O)c1cccc(c1)S(=O)(=O)N2 | – | – | – | – | ring closure, yield after HPLC ([1]; from Cc1cccc(CC2CCOCC2)c1-c1nc(NS(=O)(=O)c2cccc(C(=O)O)c2)nc(OC[C@@H](CC(C)(C)C)NCc2ncc(N3CCOCC3)cn2)c1C, CDMT/NMM, 41.0 mM, 19.0 h): 25% |
| (5P,11R)-11-(2,2-dimethylpropyl)-7-methyl-6-[2-methyl-6-(3-methylbutyl)phenyl]-12-{[5-(propan-2-yloxy)pyrimidin-2-yl]methyl}-9-oxa-2λ^6-thia-3,5,12,19-tetraazatricyclo[12.3.1.14,8]nonadeca-1(17),4(19),5,7,14(18),15-hexaene-2,2,13-trione | – | – | – | – | ring closure, yield after HPLC ([1]; CDMT/NMM, 33.8 mM): 45% |
| Cc1ccccc1-c1nc2nc(c1C(F)(F)F)OC1CN(Cc3ccccc31)C(=O)c1cccc(c1)S(=O)(=O)N2 (stereo not shown) [Compound 43] | +++ (+++ is >60%) | < 1000 nM | – | – | – |
| CCc1c2nc(nc1-c1c(C)ccc(OCCC(C)C)c1C)NS(=O)(=O)c1cccc(c1)NC(=O)c1cccc(c1)O2 [Compound 9] | ++ (++ is 30-60%) | < 1000 nM | – | – | – |
| CC(C)Oc1cccc(-c2nc3nc(c2C(F)(F)F)OC2CN(Cc4ccccc42)C(=O)c2cccc(c2)S(=O)(=O)N3)c1 (stereo not shown) [Compound 42] | + (+ is <30%) | < 1000 nM | – | – | – |

Further lines, with some results ahead:

| Ent. A Max Activity (CFTR [2]) | EC50 (CFTR [2]) | Ent. B Max Activity (CFTR [3]) | EC50 (CFTR [3]) | Compound | other results |
| --- | --- | --- | --- | --- | --- |
| +++ (+++ is >60%) | < 1000 nM | +++ (+++ is >60%) | < 1000 nM | CCc1c2nc(nc1-c1c(C)cccc1C)NS(=O)(=O)c1cccc(c1)C(=O)N[C@H](CC(C)C)CO2 [Compound 190] | – |
| +++ (+++ is >60%) | < 1000 nM | +++ (+++ is >60%) | < 1000 nM | CCc1c2nc(nc1-c1c(C)cccc1C)NS(=O)(=O)c1cccc(c1)C(=O)N(C1CC3(CCN(C(=O)OC(C)(C)C)CC3)C1)[C@H](CC(C)C)CO2 [Compound 158, tert-butyl 2-[(11R)-6-(2,6-dimethylphenyl)-7-ethyl-11-isobutyl-2,2,13-trioxo-9-oxa-2λ^6-thia-3,5,12,19-tetrazatricyclo[12.3.1.14,8]nonadeca-1(17),4(19),5,7,14(18),15-hexaen-12-yl]-7-azaspiro[3.5]nonane-7-carboxylate] | – |
| +++ (+++ is >60%) | < 1000 nM | +++ (+++ is >60%) | < 1000 nM | Cc1cccc(C)c1-c1nc2nc(c1OC(C)C)OC[C@@H](CC(C)C)N(C1CC3(CCN(C)CC3)C1)C(=O)c1cccc(c1)S(=O)(=O)N2 [Compound 176] | – |
| +++ (+++ is >60%) | < 1000 nM | +++ (+++ is >60%) | < 1000 nM | CCc1c2nc(nc1-c1c(C)cccc1C)NS(=O)(=O)c1cccc(c1)C(=O)N(C1CC3(CCN(C)CC3)C1)[C@H](CC(C)C)CO2 [Compound 159, (11R)-6-(2,6-Dimethylphenyl)-7-ethyl-11-isobutyl-12-(7-methyl-7-azaspiro[3.5]nonan-2-yl)-2,2-dioxo-9-oxa-2λ^6-thia-3,5,12,19-tetrazatricyclo[12.3.1.14,8]nonadeca-1(17),4(19),5,7,14(18),15-hexaen-13-one] | – |
| +++ (+++ is >60%) | < 1000 nM | +++ (+++ is >60%) | < 1000 nM | CC(C)C[C@@H]1COc2nc(nc(-c3ccccc3C(C)C)c2C(F)(F)F)NS(=O)(=O)c2cccc(c2)C(=O)N1 [Compound 164, (11R)-11-Isobutyl-6-(2-isopropylphenyl)-2,2-dioxo-7-(trifluoromethyl)-9-oxa-2λ^6-thia-3,5,12,19-tetrazatricyclo[12.3.1.14,8]nonadeca-1(18),4,6,8(19),14,16-hexaen-13-one] | – |
| +++ (+++ is >60%) | < 1000 nM | +++ (+++ is >60%) | < 1000 nM | Cc1cccc(C)c1-c1nc2nc(c1OC(C)C)OC[C@@H](CC(C)C)N(C1CC3(CCN(C(=O)OC(C)(C)C)CC3)C1)C(=O)c1cccc(c1)S(=O)(=O)N2 [Compound 177] | – |

Source: patent US20230374038A1, “MODULATORS OF CYSTIC FIBROSIS TRANSMEMBRANE CONDUCTANCE REGULATOR” (VERTEX PHARMACEUTICALS INCORPORATED, priority 2020, published 2023)
